Measurements taken from patent US5681685A, “Photopolymerizable composition containing squarylium compound” (Kyowa Hakko Kogyo Co., Ltd., priority 1994, dated 1997).

Tests used:
[1] = Degraded rate of squarylium compound in photosensitive resin solution with 2,4,6-tris(trichloromethyl)-s-triazine (Example 7); type: physicochemical; conditions: 40° C., 3 days, light-screened, ethyl cellosolve, relative to Compound (A)
Description: (§1) 0.5 g of pentaerythritol triacrylate, 0.5 g of butyl methacrylate/acrylic acid copolymer (weight-average molecular weight 3,100, copolymerization ratio 66/34), 60 mg of 2,4,6-tris(trichloromethyl)-s-triazine and 2 mg of a squarylium compound were dissolved in ethyl cellosolve to 25 ml to give a photosensitive resin solution. This solution was light-screened and allowed to stand at 40° C. for 3 days. The absorbance at the maximum absorption wavelength present in 600 to 700 nm was measured with a spectrophotometer before (A1) and after (A2) being allowed to stand. The degraded rate of the squarylium compound was obtained according to the following equation:
(§2) Degraded rate (%)=(A1-A2)/A1 ×100
The degraded rates of squarylium Compounds 1 to 9 are shown as a relative value based on the degraded rate of Compound (A) in Table 5.

[2] = Degraded rate of squarylium compound in photosensitive resin solution with iron(II) hexafluorophosphate complex (Example 8); type: physicochemical; set-up: key: degraded rate relative to that of Compound (A); conditions: 40° C., 32 days, light-screened, ethyl cellosolve, relative to Compound (A)
Description: as §1, §2
0.5 g of pentaerythritol triacrylate, 60 mg of polymethyl methacrylate (manufactured by Aldrich; weight-average molecular weight 12,000), 90 mg of (.eta.^6 -benzene)(.eta.^5 cyclopentadienyl)iron(II) hexafluorophosphate and 2 mg of a squarylium compound were dissolved in ethyl cellosolve to 25 ml to give a photosensitive resin solution. Thereafter, the same procedures as those in Example 7 were repeated except that a time for being allowed to stand of 3 days was replaced with that of 32 days to give the degraded rate of the squarylium compound. The degraded rate of squarylium Compounds 1 to 9 are shown as a relative value based on the degraded rate of Compound (A) in Table 6.

[3] = Sensitivity of photosensitive layer with 2,4,6-tris(trichloromethyl)-s-triazine (Example 9); conditions: energy necessary for hardening, s-triazine radical generator
Description: (§3) 100 parts of pentaerythritol triacrylate, 100 parts of polymethacrylate polymer [synthesized according to the methods described in Jikkenkagakukoza, Maruzen K. K., 4th edition, volume 28, page 121, 1992; Kobunshigosei no Jikkenho (Experimental method for polymer synthesis), Kagakudojin K. K., coauthored by Takayuki Otsu and Masaetsu Kinoshita, page 138, 1972; average molecular weight 150,000; methyl ester/isobutyl ester/cyclohexyl ester/free carboxylic acid=27/36/25/12], 7.9 parts of 2,4,6-tris(trichloromethyl)-s-triazine and 1 part of a squarylium compound were dissolved in 1900 parts of ethyl cellosolve to give a photosensitive resin solution. This photosensitive solution was spin-coated on an aluminium plate treated with grinding and anodic oxidation, at 1000 rpm so that the dry-state thickness became 2 μm. On this, a 10% aqueous polyvinyl alcohol (Kurarey Poval 706) solution was spin-coated at 1500 rpm so that the dry-state thickness became 1 μm to give a over-coat layer. A step tablet was piled closely on the resulting photosensitive layer, and the rays having the wavelength around 630, 650 or 680 nm were irradiated from 3kw ultra-high pressure mercury lamp through a glass filter. The rays having the wavelength around 630 nm (155 μJ/cm^2 ·s) were obtained by passing the rays from the above mercury lamp through a colored glass filter R-61, an interference filter KL-63 (both were manufactured by Toshiba Glass Co., Ltd.) and a heat rays absorbing filter HA-30 (manufactured by HOYA Corporation), the rays having the wavelength around 650 nm (177 μJ/cm^2 ·s) were obtained by passing the rays from the above mercury lamp through a colored glass filter R-63, an interference filter KL-65 (both were manufactured by Toshiba Glass Co., Ltd.) and HA-30 and the rays having the wavelength around 680 nm (88 μJ/cm^2 ·s) were obtained by passing the rays from the above mercury lamp through a glass filter R-66, an interference filter KL-68 (both were manufactured by Toshiba Glass Co., Ltd.) and HA-30. Then, the development was carried out with a PS plate developer DN3C (manufactured by Fujiphoto Film Co., Ltd.) diluted 1.5-folds with distilled water, an ink was attached thereon with a PS plate developing ink PI-2 (manufactured by Fujiphoto Film Co., Ltd.) and the sensitivity was scored by obtaining an energy amount necessary for hardening from hardening step number with an ink attached thereto.

[4] = Sensitivity of photosensitive layer with iron(II) hexafluorophosphate complex and CARBOSET XL-44 (Example 10); conditions: 630 nm; iron(II) hexafluorophosphate complex, CARBOSET XL-44
Description: as §3
The sensitivity when the rays having the wavelength around 630 nm were irradiated was obtained by repeating the same procedures as those in Example 9 except that 8 parts of (.eta.^6 -benzene) (.eta.^5 -cyclopentadienyl)iron(II) hexafluorophosphate was used in place of 7.9 parts of 2,4,6-tris(trichloromethyl)-s-triazine and CARBOSET,XL-44 (manufactured by BF Goodrich) was used in place of polymethacrylate polymer (methyl ester/isobutyl ester/cyclohexyl ester/free carboxylic acid=27/36/25/12).

[5] = Sensitivity of photosensitive layer with 3,3',4,4'-tetrakis(tert-butyldioxycarbonyl)benzophenone (Example 11); conditions: 630 nm
Description: as §3
The sensitivity when the rays having the wavelength around 630 nm were irradiated was obtained by repeating the same procedures as those of Example 9 except that 8 parts of 3,3',4,4'-tetrakis(tert-butyldioxycarbonyl)benzophenone was used in place of 7.9 parts of 2,4,6-tris(tichloromethyl)-s-triazine.

[6] = Optical absorption property in chloroform; type: physicochemical; conditions: solvent chloroform
[7] = disclosed in JP-A 63-138345, JP-A 63-142346, JP-A 2-48665; cited from earlier work
[8] = background statement; cited from earlier work
[9] = in the dark, light screened; background statement; cited from earlier work

| SMILES | Relative value of degraded rate [1] | Relative value of degraded rate [2] | logε [6] | λ max [6] | Sensitivity ([3]; 630 nm) | Sensitivity ([3]; 650 nm) | Sensitivity ([3]; 680 nm) | Sensitivity [4] | Sensitivity [5] | maximum absorption wavelength [7] | solubility in an organic solvent or a monomer [8] | degradation in photosensitizer solution [9] |
| --- | --- | --- | --- | --- | --- | --- | --- | --- | --- | --- | --- | --- |
| CCCCN1C(=CC2=C([O-])C(=CC3=[N+](CCCC)c4ccc5ccccc5c4C3(C)C)C2=O)C(C)(C)c2c1ccc1ccccc21 [Compound 7] | 0.31 | 0.56 | – | – | 0.47 mJ/cm^2 | 0.40 mJ/cm^2 | 0.37 mJ/cm^2 | 5.8 mJ/cm^2 | 0.20 mJ/cm^2 | – | – | – |
| CC(C)CCN1C(=CC2=C([O-])C(=CC3=[N+](CCC(C)C)c4ccc5ccccc5c4C3(C)C)C2=O)C(C)(C)c2c1ccc1ccccc21 [Compound 8] | 0.32 | 0.43 | 5.5 | 667 nm | – | – | – | – | – | – | – | – |
| CCCCN1C(=CC2=C([O-])C(=CC3=[N+](CCCC)c4ccc5ccccc5c4C3(C)C)C2=O)C(C)(C)c2c1ccc1ccccc21 [Compound 4] | 0.29 | 0.60 | – | – | 0.39 mJ/cm^2 | 0.40 mJ/cm^2 | 0.37 mJ/cm^2 | – | – | – | – | – |
| CCCCCCN1C(=CC2=C([O-])C(=CC3=[N+](CCCCCC)c4ccc5ccccc5c4C3(C)C)C2=O)C(C)(C)c2c1ccc1ccccc21 [Compound 9] | 0.26 | 0.52 | 5.5 | 668 nm | – | – | – | 8.7 mJ/cm^2 | 0.17 mJ/cm^2 | – | – | – |
| CCCCCN1C(=CC2=C([O-])C(=CC3=[N+](CCCCC)c4ccc5ccccc5c4C3(C)C)C2=O)C(C)(C)c2c1ccc1ccccc21 [Compound 6] | 0.28 | 0.46 | 5.5 | 667 nm | 0.56 mJ/cm^2 | 0.40 mJ/cm^2 | 0.37 mJ/cm^2 | 5.8 mJ/cm^2 | 0.099 mJ/cm^2 | – | – | – |
| CCCN1C(=CC2=C([O-])C(=CC3=[N+](CCC)c4ccc5ccccc5c4C3(C)C)C2=O)C(C)(C)c2c1ccc1ccccc21 [Compound 2] | 0.25 | 0.48 | 5.5 | 667 nm | 0.47 mJ/cm^2 | 0.40 mJ/cm^2 | 0.37 mJ/cm^2 | – | – | – | – | – |
| CCN1C(=CC2=C([O-])C(=CC3=[N+](CC)c4ccc5ccccc5c4C3(C)C)C2=O)C(C)(C)c2c1ccc1ccccc21 [Compound 1] | 0.34 | 0.51 | – | – | 0.47 mJ/cm^2 | 0.40 mJ/cm^2 | 0.37 mJ/cm^2 | – | – | – | – | – |

Continued, in another order:

| Relative value of degraded rate [1] | Relative value of degraded rate [2] | logε [6] | λ max [6] | SMILES | Sensitivity ([3]; 630 nm) | Sensitivity ([3]; 650 nm) | Sensitivity ([3]; 680 nm) | Sensitivity [4] | Sensitivity [5] | maximum absorption wavelength [7] | solubility in an organic solvent or a monomer [8] | degradation in photosensitizer solution [9] |
| --- | --- | --- | --- | --- | --- | --- | --- | --- | --- | --- | --- | --- |
| 0.24 | 0.44 | 5.5 | 666 nm | CC(C)N1C(=CC2=C([O-])C(=CC3=[N+](C(C)C)c4ccc5ccccc5c4C3(C)C)C2=O)C(C)(C)c2c1ccc1ccccc21 [Compound 3] | 0.39 mJ/cm^2 | 0.40 mJ/cm^2 | 0.26 mJ/cm^2 | – | 0.083 mJ/cm^2 | – | – | – |
| 1.0 | 1.0 | – | – | CN1C(=CC2=C([O-])C(=CC3=[N+](C)c4ccc5ccccc5c4C3(C)C)C2=O)C(C)(C)c2c1ccc1ccccc21 [A, reference compound] | 0.91 mJ/cm^2 | 0.56 mJ/cm^2 | 0.65 mJ/cm^2 | 11 mJ/cm^2 | 0.43 mJ/cm^2 | 673 nm | low solubility | easily degraded in the dark |
| 0.15 | 0.42 | 5.5 | 669 nm | CC(C)CN1C(=CC2=C([O-])C(=CC3=[N+](CC(C)C)c4ccc5ccccc5c4C3(C)C)C2=O)C(C)(C)c2c1ccc1ccccc21 [Compound 5] | 0.47 mJ/cm^2 | 0.56 mJ/cm^2 | 0.28 mJ/cm^2 | 11 mJ/cm^2 | 0.20 mJ/cm^2 | – | – | – |
